# Measurements from article PMC9061857, “A fluorogenic probe for granzyme B enables in-biopsy evaluation and screening of response to anticancer immunotherapies” (Nature Communications, 2022).
# Where no end group is shown, it is not given here.
# Key:
# E0771 cells = test: Flow cytometry of E0771 cells in co-culture with CD8+ T cells; format: cell-based, mouse; settings: H5 5 μM
# Description: Treatments with staurosporine (1 μM) were for 1 h. […]
# mouse CD8+ T cells and mKate-E0771 cells. b) Representative flow cytometry contour plots of E0771 cells in: left) co-cultures of E0771 cells (50,000 cells well-1) and activated […]
# cells well-1), right) E0771 alone cells treated with staurosporine (1 µM, 1 h). c) Representative flow cytometry contour plots of CD8+ T cells in: left) co-cultures of E0771 […]
# 2 h) murine CD8+ T cells (200,000 cells well -1). All cultures in b) and c) were equally […]
# with and without preincubation of the GzmB inhibitor Ac -IEPD-CHO. Data presented as […]
# 633/670 nm (for AF647-Annexin V). Representative plots from independent experiments performed in triplicate. Source data in d provided as a Source Data file.
# SCC cancer cells = test: Ex vivo flow cytometry of wild-type SCC and SCC FAK (−/−) tumors; format: cell-based, mouse; settings: for Fluorescence intensity of H5 inside SCC cancer cells (525 nm) / Freq cancer cells (GzmB-positive SCC cancer cells by H5 staining): H5 5 μM, 30 min; for Mean fluorescence intensity after incubation with probe H5: SCC (-/-) tumor digests
# Description: P-values from two-tailed t-tests using Welch correction. Source data (c–f) provided as a Source Data file.
# All animal work was carried out in compliance with UK Home Office guidelines. SCC tumors were established and labeled for flow cytometry as previously described. Briefly, 1 × 10^6 SCC cancer cells (obtained from Dr Alan Serrels at The University of Edinburgh) were injected subcutaneously into FVB/N mice (n = 4 for both WT and FAK (−/−) groups, Sex: female, Age: 10–14 weeks, obtained from Harlan UK), which were sacrificed 14 days post-implantation and tumors disaggregated to generate a single-cell suspension. […] Data analysis was performed using FlowJo V10 software. […]
# and SCC7.1 FAK-/- tumors. All cells were gated on singlets and live cells (Zombie NIR viability dye, 1:1000 dilution). Wild-type SCC and SCC FAK-/- were gated as CD45− CD140a− (AF700 & BV650, respectively). All non-cancerous and non-fibrotic cells were gated on CD45+ (AF700). Monocytes were gated on CD11b+ (PerCP-Cy5.5) whilst the remaining cells were classified as CD8+ T cells (PE), CD4+ T cells (eFluor450) or immune cells (CD4−CD8− or CD4+CD8+).
# (1 picture or pasted object on this page, not shown here)
substance,measurement,setting,value
"IEPDAL [H5, FRET hexapeptide IEPDAL with BODIPY-FL fluorophore at the N-terminal end and Dabcyl quencher]",cancer cells double-stained with H5 and Annexin V-AF647,E0771 cells; E0771-La2-NLR cells cultured with activated T cells,over 80%
same,H5 +ve E0771 cells,"E0771 cells; E0771 alone, staurosporine 1 μM, 1 h, replicate 1",2.3%
same,H5 +ve E0771 cells,"E0771 cells; E0771 alone, staurosporine 1 μM, 1 h, replicate 2",1.69%
same,H5 +ve E0771 cells,"E0771 cells; E0771 alone, staurosporine 1 μM, 1 h, replicate 3",2.6%
same,H5 +ve E0771 cells,"E0771 cells; co-culture with active CD8+ T cells (24 h IL-2), replicate 1",79%
same,H5 +ve E0771 cells,"E0771 cells; co-culture with active CD8+ T cells (24 h IL-2), replicate 2",80%
same,H5 +ve E0771 cells,"E0771 cells; co-culture with active CD8+ T cells (24 h IL-2), replicate 3",76%
same,H5 +ve E0771 cells,"E0771 cells; co-culture with inactive CD8+ T cells (2 h IL-2), replicate 1",17%
same,H5 +ve E0771 cells,"E0771 cells; co-culture with inactive CD8+ T cells (2 h IL-2), replicate 2",18%
same,H5 +ve E0771 cells,"E0771 cells; co-culture with inactive CD8+ T cells (2 h IL-2), replicate 3",27%
same,Fluorescence intensity of H5 inside SCC cancer cells (525 nm),"SCC cancer cells; SCC FAK tumor, Data 1",17211
same,Freq cancer cells (GzmB-positive SCC cancer cells by H5 staining),"SCC cancer cells; SCC FAK tumor, Data 1",19%
same,Fluorescence intensity of H5 inside SCC cancer cells (525 nm),"SCC cancer cells; SCC FAK tumor, Data 2",15125
same,Freq cancer cells (GzmB-positive SCC cancer cells by H5 staining),"SCC cancer cells; SCC FAK tumor, Data 2",45%
same,Fluorescence intensity of H5 inside SCC cancer cells (525 nm),"SCC cancer cells; SCC FAK tumor, Data 3",14692
same,Freq cancer cells (GzmB-positive SCC cancer cells by H5 staining),"SCC cancer cells; SCC FAK tumor, Data 3",38%
same,Fluorescence intensity of H5 inside SCC cancer cells (525 nm),"SCC cancer cells; SCC FAK tumor, Data 4",14334
same,Freq cancer cells (GzmB-positive SCC cancer cells by H5 staining),"SCC cancer cells; SCC FAK tumor, Data 4",41%
same,Fluorescence intensity of H5 inside SCC cancer cells (525 nm),"SCC cancer cells; SCC tumor, Data 1",5564
same,Freq cancer cells (GzmB-positive SCC cancer cells by H5 staining),"SCC cancer cells; SCC tumor, Data 1",6%
same,Fluorescence intensity of H5 inside SCC cancer cells (525 nm),"SCC cancer cells; SCC tumor, Data 2",6027
same,Freq cancer cells (GzmB-positive SCC cancer cells by H5 staining),"SCC cancer cells; SCC tumor, Data 2",4.5%
same,Fluorescence intensity of H5 inside SCC cancer cells (525 nm),"SCC cancer cells; SCC tumor, Data 3",5635
same,Freq cancer cells (GzmB-positive SCC cancer cells by H5 staining),"SCC cancer cells; SCC tumor, Data 3",2.78%
same,Fluorescence intensity of H5 inside SCC cancer cells (525 nm),"SCC cancer cells; SCC tumor, Data 4",5745
same,Freq cancer cells (GzmB-positive SCC cancer cells by H5 staining),"SCC cancer cells; SCC tumor, Data 4",3.77%
same,Mean fluorescence intensity after incubation with probe H5,"SCC cancer cells; CD4 T cells, Data 1",3345
same,Mean fluorescence intensity after incubation with probe H5,"SCC cancer cells; CD4 T cells, Data 2",2508
same,Mean fluorescence intensity after incubation with probe H5,"SCC cancer cells; CD8 T cells, Data 1",3289
same,Mean fluorescence intensity after incubation with probe H5,"SCC cancer cells; CD8 T cells, Data 2",2980
same,Mean fluorescence intensity after incubation with probe H5,"SCC cancer cells; cancer cells, Data 1",11273
same,Mean fluorescence intensity after incubation with probe H5,"SCC cancer cells; cancer cells, Data 2",13796
same,Mean fluorescence intensity after incubation with probe H5,"SCC cancer cells; immune cells (CD8-CD4-CD11b-), Data 1",3435
same,Mean fluorescence intensity after incubation with probe H5,"SCC cancer cells; immune cells (CD8-CD4-CD11b-), Data 2",2496
same,Mean fluorescence intensity after incubation with probe H5,"SCC cancer cells; monocytes / macrophages, Data 1",2362
same,Mean fluorescence intensity after incubation with probe H5,"SCC cancer cells; monocytes / macrophages, Data 2",2247
same,cancer cells labeled with probe H5,"SCC cancer cells; SCC FAK (−/−) tumors, H5 30 min",over 40%
